Experimental data: patent US20230159527A1, “COMPOUNDS AS BCL-2 INHIBITORS” (Fochon Pharmaceuticals, Ltd., priority 2020, published 2023)
Read-outs that look alike come from different tables or passages of the source.

Assays:
[1] = tested on: Toledo cells; assay: Cell proliferation assay, Toledo cells (MTS, 72 h); format: cell-based; settings: Toledo cells, MTS, read-out: Toledo IC50
In short: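 Toledo cells (30000/well, RPMI-1640 with 10% FBS) were preincubated for 4 h. They were then exposed to nine compound concentrations from 10000 to 1.5 nM for 72 h at 37 °C, 5% CO2. MTS was added for 2 h and absorbance read at 490 nm to give IC50.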

[2] = tested on: DoHH2 cells; assay: Cell proliferation assay, DoHH2 cells (MTS, 120 h); format: cell-based
Method: MTS testing kit was purchased from Promega (Madison, Wis., USA). The RPMI-1640, Fetal bovine serum and Penicillin-Streptomycin were purchased from BI (Biological Industries, Beit Haemek, Israel). Dimethyl sulfoxide (DMSO) was purchased from Sigma (St. Louis, Mo., USA). DoHH2 (DSMZ catalog #: ACC47) cells were cultured in RPMI-1640 supplemented with Penicillin-Streptomycin and 10% FBS.
To investigate whether a compound is able to inhibit the activity of BCL-2 in cells, a mechanism-based assay using DoHH2 lines was developed. In this assay, the inhibition of BCL-2 was reflected by the inhibition of cell proliferation of DoHH2 cells. Cells were plated into 96-well plates at the optimized cell density of 5000 cells/well. Plates were incubated at 37° C., with 5% CO2 for 4h. Compounds were serially diluted and added to the plates with the final concentrations of 10000, 3333.3, 1111.1, 370.4, 123.5, 41.2, 13.7, 4.6 and 1.5 nM. Plates were incubated at 37° C., with 5% CO2 for 120 h. 20 μl MTS was added into each well and the plates were incubated at 37° C., with 5% CO2 for exactly 2 h. The absorbance was measured by a microplate reader at 490 nm. IC50 was calculated using GraphPad Prism 5.0 software.

SMILES | IC50 ([2]; Homo sapiens, DOHH-2) [nM] | also measured
CC(C)c1ccccc1C1COCCN1C1CC2(CCN(c3ccc(C(=O)NS(=O)(=O)c4cnc(NCC5CCC(N=S(C)(C)=O)CC5)c([N+](=O)[O-])c4)c(Oc4cnc5[nH]ccc5c4)c3)CC2)C1 (single isomer, unassigned) [Example A-57, 2-((1H-pyrrolo[2,3-b]pyridin-5-yl)oxy)-N-((6-((((1r,4r)-4-((dimethyl (oxo)-λ^6-sulfanylidene)amino)cyclohexyl)methyl)amrno)-5-nitro-pyridin-3-yl)sulfonyl)-4-(2-((R or S)-3-(2-isopropylphenyl)morpho-lino)-7-azaspiro[3.5]nonan-7-yl) benzamide] | – | IC50 [1]: 2 nM; IC50 [2]: ≤ 1 nM
O=C(NS(=O)(=O)c1cc2c(c([N+](=O)[O-])c1)N[C@@H](CN1CCOCC1)CCO2)c1ccc(N2CCC3(CC2)CC(N2CCC[C@H]2c2ccccc2C2CC2)C3)cc1Oc1cnc2[nH]ccc2c1 (single isomer, unassigned) [Example D-24, 2-((1H-pyrrolo[2,3-b]pyridin-5-yl)oxy)-4-(2-((R or S)-2-(2-cyclopropylphenyl)pyrrolidin-1-yl)-7-azaspiro[3.5]nonan-7-yl)-N-(((R)-4-(morpholinomethyl)-6-nitro-2,3,4,5-tetrahydrobenzo [b][1,4]oxazepin-8-yl)sulfonyl) benzamide] | ≤ 1 | –
O=C(NS(=O)(=O)c1cc([N+](=O)[O-])c2c(n1)OC[C@H](COC1CCOCC1)N2)c1ccc(N2CCC3(CC2)CC(N2CCCC2c2ccccc2C2CC2)C3)cc1Oc1cnc2[nH]ccc2c1 (single isomer, unassigned) [Example B-46, 2-((1H-pyrrolo[2,3-b]pyridin-5-yl)oxy)-4-(2-((R or S)-2-(2-cyclopropylphenyl)pyrrolidin-1-yl)-7-azaspiro[3.5]nonan-7-yl)-N-(((S)-8-nitro-2-(((tetrahydro-2H-pyran-4-yl)oxy)methyl)-2,3-dihydro-1H-pyrido[2,3-b] [1,4]oxazin-6-yl)sulfonyl)benzamide] | ≤ 1 | –
CC1(O)CCC(CNc2ncc(S(=O)(=O)NC(=O)c3ccc(N4CCC5(CC4)CC(N4CCC[C@H]4c4ccccc4C4CC4)C5)cc3Oc3cnc4[nH]ccc4c3)cc2[N+](=O)[O-])CC1 (stereo partly drawn) [Example A-1b, (S)-2-((1H-pyrrolo[2,3-b]pyridin-5-yl)oxy)-4-(2-(2-(2-cyclopropylphenyl)pyrrolidin-1-yl)-7-azaspiro[3.5]nonan-7-yl)-N-((6-(((4-hydroxy-4-methylcyclohexyl)methyl)amino)-5-nitropyridin-3-yl)sulfonyl)benzamide] | ≤ 1 | –
CC(C)c1ccccc1C1CN(C)CCN1C1CC2(CCN(c3ccc(C(=O)NS(=O)(=O)c4cnc(NCC5CCC(C)(O)CC5)c([N+](=O)[O-])c4)c(Oc4cnc5[nH]ccc5c4)c3)CC2)C1 (single isomer, unassigned) [Example A-62, (R or S)-2-((1H-pyrrolo[2,3-b]pyridin-5-yl)oxy)-N-((6-(((4-hydroxy-4-methylcyclohexyl)methyl)amino)-5-nitropyridin-3-yl)sulfonyl)-4-(2-(2-(2-isopropylphenyl)-4-methyl-piperazin-1-yl)-7-azaspiro[3.5]nonan-7-yl)benzamide] | ≤ 1 | IC50 ([1]; Homo sapiens): 1 nM
CC(C)c1ccccc1[C@@H]1CCCN1C1CC2(CCN(c3ccc(C(=O)NS(=O)(=O)c4cc([N+](=O)[O-])c5c(n4)OC[C@H]([C@H]4CC[C@@](C)(O)CC4)N5)c(Oc4cnc5[nH]ccc5c4)c3)CC2)C1 (single isomer, unassigned) [Example B-35, 2-((1H-pyrrolo[2,3-b]pyridin-5-yl)oxy)-N-(((S)-2-((1s,4R)-4-hydroxy-4-methylcyclohexyl)-8-nitro-2,3-dihydro-1H-pyrido[2,3-b] [1,4]oxazin-6-yl)sulfonyl)-4-(2-((R or S)-2-(2-isopropylphenyl)pyrrolidin-1-yl)-7-azaspiro[3.5]nonan-7-yl)benzamide] | ≤ 1 | –
CC(C)c1ccccc1[C@@H]1CCCN1C1CC2(CCN(c3ccc(C(=O)NS(=O)(=O)c4cc5c(c([N+](=O)[O-])c4)O[C@@H](CN4CCOCC4)CO5)c(Oc4cnc5[nH]ccc5c4)c3)CC2)C1 (single isomer, unassigned) [Example E-35, 2-((1H-pyrrolo [2,3-b]pyridin-5-yl)oxy)-4-(2-((R or S)-2-(2-isopropylphenyl)pyrrolidin-1-yl)-7-azaspiro[3.5]nonan-7-yl)-N-(((S)-2-(morpholinomethyl)-8-nitro-2,3-dihydrobenzo [b][1,4]dioxin-6-yl)sulfonyl) benzamide] | ≤ 1 | IC50 ([1]; Homo sapiens): 7 nM
CC(C)c1ccccc1[C@@H]1COCCN1C1CC2(CCN(c3ccc(C(=O)NS(=O)(=O)c4cnc(NC[C@H]5CC[C@](C)(O)CC5)c([N+](=O)[O-])c4)c(Oc4cnc5[nH]cc(Cl)c5c4)c3)CC2)C1 (single isomer, unassigned) [Example A-129, 2-((3-chloro-1H-pyrrolo[2,3-b]pyridin-5-yl)oxy)-N-((6-((((1r,4r)-4-hydroxy-4-methylcyclohexyl)methyl)amino)-5-nitropyridin-3-yl)sulfonyl)-4-(2-((R or S)-3-(2-isopropylphenyl)morpholino)-7-azaspiro[3.5]nonan-7-yl) benzamide] | ≤ 1 | IC50 ([1]; Homo sapiens): 1 nM
CC(C)c1ccccc1C1COCCN1C1CC2(CCN(c3ccc(C(=O)NS(=O)(=O)c4cc([N+](=O)[O-])c5c(n4)OC[C@H](CC4CCOCC4)N5)c(Oc4cnc5[nH]ccc5c4)c3)CC2)C1 (single isomer, unassigned) [Example B-51, 2-((1H-pyrrolo[2,3-b]pyridin-5-yl)oxy)-4-(2-((R or S)-3-(2-isopropylphenyl)morpholino)-7-azaspiro[3.5]nonan-7-yl)-N-(((S)-8-nitro-2-((tetrahydro-2H-pyran-4-yl)methyl)-2,3-dihydro-1H-pyrido[2,3-b][1,4]oxazin-6-yl)sulfonyl)benzamide] | ≤ 1 | –
CC(C)c1ccccc1C1CCCN1C1CC2(CCN(c3ccc(C(=O)NS(=O)(=O)c4cc([N+](=O)[O-])c5c(n4)OC[C@H](CC4CCOCC4)N5)c(Oc4cnc5[nH]ccc5c4)c3)CC2)C1 (single isomer, unassigned) [Example B-40, 2-((1H-pyrrolo[2,3-b]pyridin-5-yl)oxy)-4-(2-((R or S)-2-(2-isopropylphenyl)pyrrolidin-1-yl)-7-azaspiro[3.5]nonan-7-yl)-N-(((S)-8-nitro-2-((tetrahydro-2H-pyran-4-yl)methyl)-2,3-dihydro-1H-pyrido[2,3-b][1,4]oxazin-6-yl)sulfonyl)benzamide] | ≤ 1 | –
CC(C)c1ccccc1C1COCCN1C1CC2(CCN(c3ccc(C(=O)NS(=O)(=O)c4cc5c(c([N+](=O)[O-])c4)O[C@@H](CN4CCOCC4)CO5)c(Oc4cnc5[nH]ccc5c4)c3)CC2)C1 (single isomer, unassigned) [Example E-36, 2-((1H-pyrrolo [2,3-b]pyridin-5-yl)oxy)-4-(2-((R or S)-3-(2-isopropylphenyl)morpholino)-7-azaspiro[3.5]nonan-7-yl)-N-(((S)-2-(morpholinomethyl)-8-nitro-2,3-dihydrobenzo [b][1,4]dioxin-6-yl)sulfonyl)benzamide] | ≤ 1 | –
O=C(NS(=O)(=O)c1cc2c(c([N+](=O)[O-])c1)O[C@@H](CN1CCOCC1)CO2)c1ccc(N2CCC3(CC2)CC(N2CCC[C@H]2c2ccccc2C2CC2)C3)cc1Oc1cnc2[nH]ccc2c1 (single isomer, unassigned) [Example E-34, 2-((1H-pyrrolo [2,3-b]pyridin-5-yl)oxy)-4-(2-((R or S)-2-(2-cyclopropylphenyl)pyrrolidin-1-yl)-7-azaspiro[3.5]nonan-7-yl)-N-(((5)-2-(morpholinomethyl)-8-nitro-2,3-dihydrobenzo [b][1,4]dioxin-6-yl)sulfonyl) benzamide] | ≤ 1 | –
CC(C)c1ccccc1[C@@H]1COCCN1C1CC2(CCN(c3ccc(C(=O)NS(=O)(=O)c4cc([N+](=O)[O-])c5c(n4)OC[C@H]([C@H]4CC[C@@](C)(O)CC4)N5)c(Oc4cnc5[nH]ccc5c4)c3)CC2)C1 (single isomer, unassigned) [Example B-48, 2-((1H-pyrrolo[2,3-b]pyridin-5-yl)oxy)-N-(((S)-2-((1s,4R)-4-hydroxy-4-methylcyclohexyl)-8-nitro-2,3-dihydro-1H-pyrido[2,3-b] [1,4]oxazin-6-yl)sulfonyl)-4-(2-((R or S)-3-(2-isopropylphenyl)morpholino)-7-azaspiro[3.5]nonan-7-yl) benzamide] | ≤ 1 | –
CC(C)c1ccccc1[C@@H]1CCCN1C1CC2(CCN(c3ccc(C(=O)NS(=O)(=O)c4cnc(NCC5CCC(C)(O)CC5)c([N+](=O)[O-])c4)c(Oc4cnc5[nH]ccc5c4)c3)CC2)C1 (stereo partly drawn) [Example A-6b, (S)-2-((1H-pyrrolo[2,3-b]pyridin-5-yl)oxy)-N-((6-(((4-hydroxy-4-methylcyclohexyl)methyl)amino)-5-nitropyridin-3-yl)sulfonyl)-4-(2-(2-(2-isopropylphenyl)pyrrolidin-1-yl)-7-azaspiro[3.5]nonan-7-yl) benzamide] | ≤ 1 | –
